# Assay results reported in patent US12011455B2, “Enhancing plasmin activity to prevent soft tissue calcification” (Vanderbilt University, priority 2016, dated 2024).
# System: CTX-injured skeletal muscle of mice
# Test: Cardiotoxin-induced muscle injury model, radiographic/μCT soft tissue calcification and HO
# Type: in vivo, mouse
# Details: Plg+/− mice, 7 DPI, vs control
# Procedure: Cardiotoxin-Induced Muscle Injury Model: Skeletal muscle injury was induced by an intramuscular injection of 40 μL of 10 nM Cardiotoxin (CTX, Accurate Chemical and Scientific Corp; Westbury, NY) in the posterior compartments of the lower extremities of male C57/B6 mice. Briefly, following anesthetization with Isoflurane, CTX was injected into the lateral aspect of the posterior compartment using a 28.5 G, 0.5 cc insulin syringe. The CTX induces massive local myocyte depolarization, leading to myocyte death. However, muscle resident stem cells are unaffected by the CTX, thereby allowing for muscle regeneration following injury. […]
# Radiographic Analysis and Quantification of HO: Quantification was performed as described. […] These images underwent post-image standardization and were quantified with the previously validated heterotopic ossification scoring scale. […] A blinded reviewer assessed all scores (a score of 1=0-24%, a score of 2=25%-49%, a score of 3=50%-74%, and a score of 4=>75% of the lower extremity containing radiographically evident HO).
# Ex vivo μCT Imaging and Quantification of HO: μCT mages were acquired (μCT40, Scanco Medical AG, Bassersdorf, Switzerland) following specimen harvest of injured hindlimbs at 55 kVp, 145 uA, 200 ms integration, 500 projections per 180° rotation, with a 20 μm isotropic voxel size. […] Mineral volume was then calculated using the Scanco evaluation software.
substance,measurement,setting,value
"Fbg^ASO: Fibrinogen antisense oligonucleotide GCTTTGATCAGTTCTTTGGC; phosphorothioate backbone, 2′ O methoxyethyl wings (all phosphorothioate, sugars by position and methylation of C not given here; 2'-O-methoxyethyl wings)",soft tissue calcification after CTX injury (μCT/radiographs),,failed to prevent soft tissue calcification
same,soft tissue calcification after CTX injury (μCT/radiographs),listed as fibrinogen^ASO,marked soft tissue calcification formation
